Source: patent publication US10487146B2, “Oxidized LDL as a biomarker for neurological complications of pregnancy” (The University of Vermont and State Agricultural College, priority 2012, dated 2019)
“Also recorded” adds a separate entry of the source.

System: cerebral vein of Galen from NonP rats
Assay: BBB permeability (hydraulic conductivity, Lp) in isolated cerebral veins perfused with human plasma
Set-up: species or system rat
Procedure: BBB permeability measurements. The first set of experiments was performed to determine the effects of circulating factors in plasma from EPE and LPE women on the BBB permeability compared to NP women and NonP women. We measured Lp, the critical transport parameter that relates water flux to hydrostatic pressure, in isolated cerebral veins from nonpregnant female rats after perfusing with plasma from the 4 groups of women, as described previously (52). This method of measuring BBB permeability was specifically developed to have a direct measure of water permeability and has been successfully used in several previous studies (13, 52-54).
The vein of Galen was used for all permeability experiments as representation of the BBB because this vein has BBB properties and is where BBB disruption occurs first during acute hypertension (55). […] After this incubation period with plasma, intravascular pressure was increased to 25±0.1 mmHg and the drop in pressure due to transvascular filtration of water out of the vessel in response to hydrostatic pressure was measured for 40 minutes. […] After flux was determined, transvascular filtration per surface area (Jv/S) and Lp were calculated by normalizing flux to the surface area and oncotic pressure of the plasma perfusate that was determined by a commercially available oncometer. […]

Structure (SMILES): C[n+]1ccc(-c2c3nc(c(-c4cc[n+](C)cc4)c4ccc([n-]4)c(-c4cc[n+](C)cc4)c4nc(c(-c5cc[n+](C)cc5)c5ccc2[n-]5)C=C4)C=C3)cc1.[Cl-].[Cl-].[Cl-].[Cl-].[Cl-].[Fe+3] [FeTMPyP, Fe(III)tetrakis (1-methyl-4-pyridyl) porphyrin pentachlorideporphyrin pentachloride]
- effect on BBB permeability (Lp at 36 minutes) induced by plasma from EPE women (EPE plasma plus 50 μM FeTMPyP): significantly inhibited BBB permeability; also recorded: inhibited the BBB permeability induced by plasma from EPE women
- effect on BBB permeability (Lp) induced by exogenous oxLDL (NonP plasma plus 3.5 μg/ml oxLDL and 50 μM FeTMPyP): inhibited the BBB permeability induced by 3.5 μg/ml exogenous oxLDL
